Data reported in patent publication US20150258059A1, “ANTIMICROBIAL AND RADIOPROTECTIVE COMPOUNDS” (BioDiem, Ltd, priority 2001, published 2015).
Like-named read-outs stand apart in the source and are kept apart here.

What was measured:
Type in all cases: cell-based
Acinetobacter B-676 = assay: Sensitivity of strains: suppression of growth; conditions: Compound (1) 1.0%; antibiotics disc method
[1] = test system: Staphylococci epidermidis D-513; assay: Sensitivity of strains: suppression of growth; conditions: Compound (1) 1.0%; antibiotics disc method
[2] = test system: Staphylococcus aureus B-685; assay: Sensitivity of strains: suppression of growth; conditions: Compound (1) 1.0%; antibiotics disc method
[3] = test system: Klebsiella pneumoniae M-248; assay: Sensitivity of strains: suppression of growth; conditions: Compound (1) 1.0%; antibiotics disc method
[4] = test system: Enterobacter aerogenes B-679; assay: Sensitivity of strains: suppression of growth; conditions: Compound (1) 1.0%; antibiotics disc method
[5] = test system: Yersinia pseudotuberculosis; conditions: Compound (1) 1.0%; antibiotics disc method
Bacillus sp. B-575 = assay: Sensitivity of strains: suppression of growth; also: key: + sensitive strains; + moderately sensitive strains; − stable strains
[6] = test system: Pseudomonas aeruginosa B-601; assay: Sensitivity of strains: suppression of growth; conditions: Compound (1) 1.0%; antibiotics disc method
[7] = test system: Enterobacter aerogenes B-687; assay: Sensitivity of strains: suppression of growth; conditions: Compound (1) 1.0%; antibiotics disc method
[8] = test system: Conditional pathogenic enterobacteria gram-negative aerobic bacilli; also: key: + sensitive strains; + moderately sensitive strains; − stable strains
[9] = test system: Staphylococcus aureus M-12159; assay: Sensitivity of strains: suppression of growth; conditions: Compound (1) 1.0%; antibiotics disc method
Acinetobacter B-681 = assay: Sensitivity of strains: suppression of growth; conditions: Compound (1) 1.0%; antibiotics disc method
[10] = test system: Citrobacter diversus B-678; assay: Sensitivity of strains: suppression of growth; conditions: Compound (1) 1.0%; antibiotics disc method
[11] = test system: Staphylococcus aureus M-209; assay: Sensitivity of strains: suppression of growth; conditions: Compound (1) 1.0%; antibiotics disc method
[12] = test system: γ-hemolytic streptococcus B-672; assay: Sensitivity of strains: suppression of growth; conditions: Compound (1) 1.0%; antibiotics disc method
Acinetobacter B-677 = assay: Sensitivity of strains: suppression of growth; conditions: Compound (1) 1.0%; antibiotics disc method
[13] = test system: Neisseria meningitidis M-A72; assay: Sensitivity of strains: suppression of growth; conditions: Compound (1) 1.0%; antibiotics disc method
[14] = test system: Salmonella typhimurium M-727; assay: Sensitivity of strains: suppression of growth; conditions: Compound (1) 1.0%; antibiotics disc method
[15] = test system: Neisseria meningitidis M-6231; assay: Sensitivity of strains: suppression of growth; conditions: Compound (1) 1.0%; antibiotics disc method
[16] = test system: Klebsiella pneumoniae M-A21; assay: Sensitivity of strains: suppression of growth; conditions: Compound (1) 1.0%; antibiotics disc method
Escherichia coli B-65 = assay: Sensitivity of strains: suppression of growth; conditions: Compound (1) 1.0%; antibiotics disc method
Alkaligenes sp. B-689 = assay: Sensitivity of strains: suppression of growth; conditions: Compound (1) 1.0%; antibiotics disc method
Escherichia coli M-17 = assay: Sensitivity of strains: suppression of growth; conditions: Compound (1) 1.0%; antibiotics disc method
[17] = test system: Staphylococcus aureus B-674; assay: Sensitivity of strains: suppression of growth; conditions: Compound (1) 1.0%; antibiotics disc method
[18] = test system: Staphylococcus epidermidis BK-30; assay: Sensitivity of strains: suppression of growth; conditions: Compound (1) 1.0%; antibiotics disc method
[19] = test system: β-hemolytic streptococcus B-624; assay: Sensitivity of strains: suppression of growth; conditions: Compound (1) 1.0%; antibiotics disc method
Escherichia coli B-683 = assay: Sensitivity of strains: suppression of growth; conditions: Compound (1) 1.0%; antibiotics disc method
Alkaligenes sp. B-667 = assay: Sensitivity of strains: suppression of growth; conditions: Compound (1) 1.0%; antibiotics disc method
[20] = test system: Corynebacterium diphtheriae B-670; assay: Sensitivity of strains: suppression of growth; conditions: Compound (1) 1.0%; antibiotics disc method
[21] = test system: Salmonella paratyphi M-16469; assay: Sensitivity of strains: suppression of growth; conditions: Compound (1) 1.0%; antibiotics disc method

Compound | Suppression of Growth (+/−) (Acinetobacter B-676) | Suppression of Growth (+/−) [1] | Suppression of Growth (+/−) [2] | Suppression of Growth (+/−) [3] | Suppression of Growth (+/−) [4] | Suppression of Growth (+/−) [5] | Suppression of Growth (+/−) [6] | Suppression of Growth (+/−) [7] | Suppression of Growth (+/−) [9] | Suppression of Growth (+/−) (Acinetobacter B-681) | Suppression of Growth (+/−) [11] | Suppression of Growth (+/−) [12] | Suppression of Growth (+/−) (Acinetobacter B-677) | Suppression of Growth (+/−) [13] | Suppression of Growth (+/−) [15] | Suppression of Growth (+/−) [16] | Suppression of Growth (+/−) (Escherichia coli B-65) | Suppression of Growth (+/−) (Alkaligenes sp. B-689) | Suppression of Growth (+/−) (Escherichia coli M-17) | Suppression of Growth (+/−) [17] | other results
CC1(C)S[C@@H]2[C@H](NC(=O)[C@H](N)c3ccccc3)C(=O)N2[C@H]1C(=O)O [Antibiotic 2, ampicillin] | − | + | − | − | − | − | + | − | − | − | − | + | − | − | − | − | + | − | + | − | Suppression of Growth (+/−) (Bacillus sp. B-575): −; Suppression of Growth (+/−) [8]: −; Suppression of Growth (+/−) [10]: +; Suppression of Growth (+/−) [14]: −; Suppression of Growth (+/−) [18]: +; Suppression of Growth (+/−) [19]: +; Suppression of Growth (+/−) (Escherichia coli B-683): +; Suppression of Growth (+/−) (Alkaligenes sp. B-667): −
CC1(C)S[C@@H]2[C@H](NC(=O)C(C(=O)O)c3ccccc3)C(=O)N2[C@H]1C(=O)O (some centres unmarked) [Antibiotic 4, carbenicillin] | − | + | + | − | − | − | + | − | + | − | + | − | − | − | − | − | + | − | + | − | Suppression of Growth (+/−) [20]: −; Suppression of Growth (+/−) (Bacillus sp. B-575; Compound (1) 1.0%, antibiotics disc method): −; Suppression of Growth (+/−) [8]: −; Suppression of Growth (+/−) [10]: −; Suppression of Growth (+/−) [18]: +; Suppression of Growth (+/−) [19]: +; Suppression of Growth (+/−) (Escherichia coli B-683): +; Suppression of Growth (+/−) (Alkaligenes sp. B-667): −
NC[C@H]1O[C@H](O[C@H]2[C@H](O)[C@@H](O[C@H]3O[C@H](CO)[C@@H](O)[C@H](N)[C@H]3O)[C@H](N)C[C@@H]2N)[C@H](O)[C@@H](O)[C@@H]1O [Antibiotic 5, kanamycin] | − | − | + | − | − | − | + | − | + | − | + | − | − | − | − | − | + | + | + | − | Suppression of Growth (+/−) [20]: −; Suppression of Growth (+/−) [8]: −; Suppression of Growth (+/−) [10]: +; Suppression of Growth (+/−) [18]: −; Suppression of Growth (+/−) [19]: −; Suppression of Growth (+/−) (Escherichia coli B-683): +; Suppression of Growth (+/−) (Alkaligenes sp. B-667): −
CN(C)[C@@H]1C(=O)C(C(N)=O)=C(O)[C@@]2(O)C(=O)C3=C(O)c4c(O)cccc4[C@@](C)(O)[C@H]3C[C@@H]12 [Antibiotic 13, tetracycline] | − | − | − | − | − | − | + | − | − | − | − | − | − | − | − | − | + | − | + | + | Suppression of Growth (+/−) [20]: +; Suppression of Growth (+/−) (Bacillus sp. B-575): +; Suppression of Growth (+/−) [18]: −; Suppression of Growth (+/−) [19]: −; Suppression of Growth (+/−) (Escherichia coli B-683): +; Suppression of Growth (+/−) (Alkaligenes sp. B-667): −
polymixin [Antibiotic 9] | − | − | − | − | + | − | + | + | − | − | + | − | − | − | − | − | + | − | + | − | Suppression of Growth (+/−) [20]: −; Suppression of Growth (+/−) (Bacillus sp. B-575): −; Suppression of Growth (+/−) [8]: −; Suppression of Growth (+/−) [18]: −; Suppression of Growth (+/−) [19]: −; Suppression of Growth (+/−) (Escherichia coli B-683): +; Suppression of Growth (+/−) (Alkaligenes sp. B-667): +; Suppression of Growth (+/−) [21]: −
